Test results from patent US20210205195A1, “PRESERVED COMPOSITIONS” (Conopco, Inc., d/b/a UNILEVER, priority 2018, published 2021).

Columns and labels:
[1] = test system: Pseudomonas aeruginosa, Burkholderia cepacia, Strenotrophomonas sp; assay: Modified Ph. Eur. 5.1.3 microbial challenge test in hair conditioner, Pool 1 (Gram negative non-fermenters); assay type: cell-based
Method: (§1) Itaconic acid, lactic acid and citric acid were purchased from Sigma-Aldrich. Six samples of unpreserved conditioner were dosed with 0.5% and 1% (w/w) itaconic acid, citric acid and lactic acid separately. An unpreserved sample was kept as a control. Each dosed product was adjusted to pH 5 using 50% sodium hydroxide (Sigma-Aldrich). A modified challenge test to that of the European Pharmacopoeia (Ph. Eur. Or EP) 5.1.3 criteria was performed on a subsample of unpreserved and each dosed product. The microbial challenge pools were added to each sample container at a ratio of 1:100. The final concentration of inoculum in the product should be 5×10^6 CFU/G of test product. Each product is mixed with a sterile spatula to ensure a homogenous distribution of the inocula throughout the product. [table] Both the inoculum level and the level of microorganism within each sample was quantified using a Total Viable Count (TVC) pour plate method at 7, 14, 21 and 28 days. A 1:10 dilution was made with a subsample of each product, performed separately in Peptone (0.1%)/tween 80 (2%) neutralising agent. A 1:10 and 1:100 dilution of each subsample was performed and pour plates produced at each dilution using tryptone soya agar. Plates were incubated at 28° C. for 48 hours and then examined for growth. Visible colonies were counted with the aid of a Quebec Colony Counter and recorded for analysis against the challenge test criteria. During the removal of a subsample of product for TVC, a reinoculation is performed at 7 and 14 days, reintroducing 5×10^6 CFU/G of bacteria before mixing using a sterile spatula to homogenise the reinoculation. [table]

[2] = test system: Enterobacter cloacae, Klebsiella sp; assay: Modified Ph. Eur. 5.1.3 microbial challenge test in hair conditioner, Pool 2 (Gram negative fermenters); assay type: cell-based
Method: as §1

[3] = 0.5% (w/w) in conditioner, pH 5, Pool 1, 7 days
[4] = 0.5% (w/w) in conditioner, pH 5, Pool 1, 14 days
[5] = 0.5% (w/w) in conditioner, pH 5, Pool 1, 21 days
[6] = 0.5% (w/w) in conditioner, pH 5, Pool 1, 28 days
[7] = 1% (w/w) in conditioner, pH 5, Pool 1, 7 days
[8] = 1% (w/w) in conditioner, pH 5, Pool 1, 14 days
[9] = 1% (w/w) in conditioner, pH 5, Pool 1, 21 days
[10] = 1% (w/w) in conditioner, pH 5, Pool 1, 28 days
[11] = 0.5% (w/w) in conditioner, pH 5, Pool 2, 7 days
[12] = 0.5% (w/w) in conditioner, pH 5, Pool 2, 14 days
[13] = 0.5% (w/w) in conditioner, pH 5, Pool 2, 21 days
[14] = 0.5% (w/w) in conditioner, pH 5, Pool 2, 28 days
[15] = 1% (w/w) in conditioner, pH 5, Pool 2, 7 days
[16] = 1% (w/w) in conditioner, pH 5, Pool 2, 14 days
[17] = 1% (w/w) in conditioner, pH 5, Pool 2, 21 days
[18] = 1% (w/w) in conditioner, pH 5, Pool 2, 28 days

C=C(CC(=O)O)C(=O)O [Itaconic acid]
Microbial Log reduction [1, 3]: >5.85
Microbial Log reduction [1, 4]: >5.89
Microbial Log reduction [1, 5]: >5.79
Microbial Log reduction [1, 6]: >5.79
Microbial Log reduction [1, 7]: >5.85
Microbial Log reduction [1, 8]: >5.89
Microbial Log reduction [1, 9]: >5.79
Microbial Log reduction [1, 10]: >5.79
Microbial Log reduction [2, 11]: >5.72
Microbial Log reduction [2, 12]: >5.61
Microbial Log reduction [2, 13]: >5.82
Microbial Log reduction [2, 14]: >5.82
Microbial Log reduction [2, 15]: >5.72
Microbial Log reduction [2, 16]: >5.61
Microbial Log reduction [2, 17]: >5.82
Microbial Log reduction [2, 18]: >5.82

CC(O)C(=O)O (stereo not drawn) [Lactic acid, lactic acid]
Microbial Log reduction [1, 3]: >5.85
Microbial Log reduction [1, 4]: >5.89
Microbial Log reduction [1, 5]: >5.79
Microbial Log reduction [1, 6]: >5.79
Microbial Log reduction [1, 7]: >5.85
Microbial Log reduction [1, 8]: >5.89
Microbial Log reduction [1, 9]: >5.79
Microbial Log reduction [1, 10]: >5.79
Microbial Log reduction [2, 11]: 3.73
Microbial Log reduction [2, 12]: 3.70
Microbial Log reduction [2, 13]: <2.82
Microbial Log reduction [2, 14]: <2.82
Microbial Log reduction [2, 15]: 3.69
Microbial Log reduction [2, 16]: 3.58
Microbial Log reduction [2, 17]: 4.02
Microbial Log reduction [2, 18]: 4.62

O=C(O)CC(O)(CC(=O)O)C(=O)O [Citric acid, citric acid]
Microbial Log reduction [1, 3]: >5.85
Microbial Log reduction [1, 4]: >5.89
Microbial Log reduction [1, 5]: >5.79
Microbial Log reduction [1, 6]: >5.79
Microbial Log reduction [1, 7]: >5.85
Microbial Log reduction [1, 8]: >5.89
Microbial Log reduction [1, 9]: >5.79
Microbial Log reduction [1, 10]: >5.79
Microbial Log reduction [2, 11]: 3.20
Microbial Log reduction [2, 12]: 2.28
Microbial Log reduction [2, 13]: <2.82
Microbial Log reduction [2, 14]: 2.72
Microbial Log reduction [2, 15]: 4.67
Microbial Log reduction [2, 16]: 2.86
Microbial Log reduction [2, 17]: <2.82
Microbial Log reduction [2, 18]: 3.69
